Source: patent US20230000808A1, “COMPOSITIONS AND METHODS EXCLUDING OR WITH REDUCED GLUTAMINE FOR THE TREATMENT OF HEMOGLOBINOPATHIES AND THALASSEMIAS” (AXCELLA HEALTH INC., priority 2019, published 2023)

What was measured:
HLMVEC = experiment: META-rank score, composite of VCAM1, ICAM1 and IL6 in the HLMVEC model; assay type: cell-based, human; conditions: HLMVEC + TNF-α; lower score = more optimal; 20x HMDB / 5 mM
Method: The ability of single amino acids and combinations to simultaneously impact these phenotypes was measured by a META-rank score (Tables 17 and 18). META-rank score is a composite measure that considers the optimal impact on all 3 phenotypes (e.g. decrease VCAM1, ICAM1, and IL6) in the HLMVEC model.

TNFα = experiment: LPS-induced TNF-α secretion in primary human monocyte-derived macrophages (ELISA); assay type: cell-based; conditions: for TNF-α Measurements Mean: baseline subtracted; for effect on LPS-induced TNF-α secretion: Two Way ANOVA Dunnett
Method: Primary human PMBC derived macrophages were seeded on day 0 at 3.0×10^4 cells per well in 96-well microplates (ThermoFisher) in Dulbecco's Modified Eagle Medium (DMEM) (Gibco) supplemented with penicillin-streptomycin (Hyclone) and 10% heat inactivated fetal bovine serum (HI-FBS) (Atlanta Bio) and incubated overnight at 37° C., 5% CO2. On day 1, cells were washed once with 150 μl per well DPBS (Gibco) and treated with 75 μl of: • a. […] The same medium described above with one amino acid at various concentrations including complete dropout. […] On day 3, the supernatant was collected and immediately frozen in −80° C. freezer. Cells were washed once with 150 μl DPBS and viability was assessed using the WST-8 Cell Proliferation Cytotoxicity Assay (Dojindo). […] Protein levels in supernatant samples were analyzed by ELISA for IL-6 and TNFα using commercially available kits (R&D Systems) according to manufacturer-supplied protocols.

VCAM-1 = VCAM-1 cell integrated intensity in HLMVEC treated with TNF-α (immunofluorescence); assay type: cell-based, human; conditions: for VCAM-1 expression in HLMVEC: 0.5 ng/mL TNF-α, amino acids at 20× HMDB, 24 hours
Outline: (§1)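 Primary human lung microvascular endothelial cells, 24 h in medium with SCD-like amino acid profile plus 0.5 ng/mL TNF-α, with or without amino acids at 20× mean plasma level. Fixed, immunostained for ICAM-1 and VCAM-1; integrated intensity per cell by high-content imaging.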

ICAM-1 = ICAM-1 cell integrated intensity in HLMVEC treated with TNF-α (immunofluorescence); assay type: cell-based, human; conditions: for TNFα induced ICAM-1 expression levels in HLMVEC: 0.5 ng/mL TNF-α, amino acids at 20× HMDB, 24 hours
Outline: as §1

sICAM-1 = experiment: Soluble ICAM-1 in HLMVEC/TNF-α model (Luminex); assay type: cell-based, human; conditions: for sICAM-1 expression relative to TNF Control, Mean % Change: 20×HMDB amino acids, 24 h co-treatment
Method: (§2) Cells were incubated at 37° C., 5% CO2 in a humidified incubator. Cells were passaged at least 1-2 times in the complete growth medium every 2-3 days until ready to plate for cell culture studies. Once ready for experiment, HLMVECs were seeded at a density of 6K cells per well of the 96 well optical microplates (Thermofisher) in the complete growth medium described above and the plated cells were incubated for 24 hours at 37° C. in a humidified incubator with 5% CO2. […] The values are published in the Human Metabolome Database (Wishart D S, et al., Nucleic Acids Res. 2007 January; 35:D521-6) which is hereby incorporated by reference in its entirety. The medium was also supplemented with growth factors & antibiotics from EGM2-MV kit (Lonza) except the kit-provided FBS which was substituted with dialyzed FBS (Hyclone). […]). […] were run in duplicate and data was normalized to corresponding TNF-α control for respective treatments as specified in the tables. Mean percent change in level of adhesion markers are reported herein. Statistical analysis was done using two sample t-test.

sVCAM-1 = experiment: Soluble VCAM-1 in HLMVEC/TNF-α model (Luminex); assay type: cell-based, human; conditions: for sVCAM-1 expression relative to TNF Control, Mean % Change: 20×HMDB amino acids, 24 h co-treatment
Method: as §2

[1] = HLMVEC + 0.5 ng/mL TNF-α, 24 h, amino acids 20x HMDB, Nac/Cit/Car 5 mM as bracketed

## CC(=O)N[C@@H](CS)C(=O)O [N-Acetyl Cysteine, N-acetylcysteine]
HLMVEC
  Meta-Rank (Table 18): 4
  Metarank (Table 17): 6
TNFα; Donor 1, Conc. 5 X, LPS 0.15 ng/mL
  TNF-α Measurements Mean: −326.24
TNFα; Donor 1, Conc. 10 X, LPS 0.15 ng/mL
  TNF-α Measurements Mean: −446.88
TNFα; Donor 1, Conc. 20 X, LPS 0.15 ng/mL
  TNF-α Measurements Mean: −561.33
TNFα; Donor 1, Conc. 40 X, LPS 0.15 ng/mL
  TNF-α Measurements Mean: −644.49
TNFα; Donor 1
  effect on LPS-induced TNF-α secretion: significantly reduced
TNFα; Donor 2, Conc. 5 X, LPS 0.15 ng/mL
  TNF-α Measurements Mean: −54.1596
TNFα; Donor 2, Conc. 10 X, LPS 0.15 ng/mL
  TNF-α Measurements Mean: −70.8382
TNFα; Donor 2, Conc. 20 X, LPS 0.15 ng/mL
  TNF-α Measurements Mean: −88.6528
TNFα; Donor 2, Conc. 40 X, LPS 0.15 ng/mL
  TNF-α Measurements Mean: −103.984
TNFα; Donor 2
  effect on LPS-induced TNF-α secretion: significantly reduced
TNFα; Donor 3, Conc. 5 X, LPS 0.15 ng/mL
  TNF-α Measurements Mean: −33.6246
TNFα; Donor 3, Conc. 10 X, LPS 0.15 ng/mL
  TNF-α Measurements Mean: −41.7266
TNFα; Donor 3, Conc. 20 X, LPS 0.15 ng/mL
  TNF-α Measurements Mean: −48.4373
TNFα; Donor 3, Conc. 40 X, LPS 0.15 ng/mL
  TNF-α Measurements Mean: −55.3093
TNFα; Donor 3
  effect on LPS-induced TNF-α secretion: significantly reduced
VCAM-1
  VCAM-1 expression in HLMVEC: greatly reduced
VCAM-1; [1]
  VCAM-1 Cell Integrated Intensity Median: −0.315
ICAM-1
  TNFα induced ICAM-1 expression levels in HLMVEC: reduced levels of ICAM-1 expression to a lesser extent
ICAM-1; [1]
  ICAM-1 Cell Integrated Intensity Median: −0.222

## NC(=O)CC[C@H](N)C(=O)O [Glutamine, L-glutamine]
sICAM-1; 0.5 ng/mL TNF-α (low), 20×HMDB, 24 h
  sICAM-1 levels: failed to reduce
sICAM-1; TNF Conc 0.5 ng/mL
  sICAM-1 expression relative to TNF Control, Mean % Change: 5.573%
sICAM-1; TNF Conc 25 ng/mL
  sICAM-1 expression relative to TNF Control, Mean % Change: 142.4986%
sICAM-1; TNF-α 25 ng/mL, 20×HMDB, 24 h
  sICAM-1 level increased by: 142%
TNFα; Donor 1, Conc. 749 μM (baseline), LPS
  TNF-α Measurements Mean: 0
TNFα; Donor 1, Conc. 3747 μM, LPS
  TNF-α Measurements Mean: −45.7
TNFα; Donor 1, Conc. 11242 μM, LPS
  TNF-α Measurements Mean: −65.24
TNFα; Donor 1, Conc. 22484 μM, LPS
  TNF-α Measurements Mean: −103.07
TNFα; Donor 2, Conc. 749 μM (baseline), LPS
  TNF-α Measurements Mean: −9.5E−15
TNFα; Donor 2, Conc. 3747 μM, LPS
  TNF-α Measurements Mean: 9.338
TNFα; Donor 2, Conc. 11242 μM, LPS
  TNF-α Measurements Mean: 20.04
TNFα; Donor 2, Conc. 22484 μM, LPS
  TNF-α Measurements Mean: 11.5
TNFα; Donor 2
  effect on LPS-induced TNF-α secretion: increased
TNFα; Donor 3, Conc. 749 μM (baseline), LPS
  TNF-α Measurements Mean: 0
TNFα; Donor 3, Conc. 3747 μM, LPS
  TNF-α Measurements Mean: 1.936
TNFα; Donor 3, Conc. 11242 μM, LPS
  TNF-α Measurements Mean: 18
TNFα; Donor 3, Conc. 22484 μM, LPS
  TNF-α Measurements Mean: 29.14
TNFα; Donor 3
  effect on LPS-induced TNF-α secretion: increased
VCAM-1
  VCAM-1 expression in HLMVEC: increased
sVCAM-1; TNF Conc 0.5 ng/mL
  sVCAM-1 expression relative to TNF Control, Mean % Change: 566.0015%
sVCAM-1; TNF Conc 25 ng/mL
  sVCAM-1 expression relative to TNF Control, Mean % Change: 755.2941%
sVCAM-1; both TNF-α groups
  increase in sVCAM-1 level relative to control: > 570%
ICAM-1
  TNFα induced ICAM-1 expression levels in HLMVEC: increased
